Reference: ChEMBL document CHEMBL1201862, “PubChem BioAssay data set” (2004)
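Exposure lasted 48 hours, with cells grown in 96-well plates and compounds tested at five concentrations. Abbreviation: GI50, concentration required for 50% inhibition of growth.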 Activity calls are given as the source filed them. Rule as the data show it: active = GI50 up to about 1.1 µM and inactive = higher.

Assays:
Assay in all cases: NCI-60 cell line screen, 48 h
[1] = system: HCT-116
[2] = system: HOP-62
[3] = system: Hs-578T
[4] = system: IGROV-1
[5] = system: MDA-MB-231
[6] = system: OVCAR-4
[7] = system: OVCAR-5
[8] = system: RXF 393
[9] = system: SK-MEL-28
[10] = system: SK-MEL-2
[11] = system: SK-MEL-5
[12] = system: SNB-19
[13] = system: SNB-75
[14] = system: T47D
[15] = system: TK-10
[16] = system: U-251
[17] = system: UACC-62
[18] = system: HT-29
[19] = system: OVCAR-8
[20] = system: MDA-N

SMILES	GI50 [1]	GI50 [2]	GI50 [3]	GI50 [4]	GI50 [5]	GI50 [6]	GI50 [7]	GI50 [8]	GI50 [9]	GI50 [10]	GI50 [11]	GI50 [12]	GI50 [13]	GI50 [14]	GI50 [15]	GI50 [16]	GI50 [17]	GI50 [18]	GI50 [19]	GI50 [20]
CCOC(=O)c1cccn1S(=O)(=O)c1cc(Cl)ccc1NC(=O)CC	40 µM (inactive)	> 100 µM (inactive)	28.9 µM (inactive)	> 100 µM (inactive)	39.2 µM (inactive)	60.1 µM (inactive)	> 100 µM (inactive)	91 µM (inactive)	> 100 µM (inactive)	53.5 µM (inactive)	20.2 µM (inactive)	> 100 µM (inactive)	33.3 µM (inactive)	44.9 µM (inactive)	> 100 µM (inactive)	> 100 µM (inactive)	58.9 µM (inactive)	–	–	–
NC(=S)N/N=C(/CC(=O)c1ccc([N+](=O)[O-])cc1)C(=O)Nc1ncc([N+](=O)[O-])s1	> 100 µM (inactive)	> 100 µM (inactive)	–	> 100 µM (inactive)	–	> 100 µM (inactive)	> 100 µM (inactive)	> 100 µM (inactive)	> 100 µM (inactive)	> 100 µM (inactive)	> 100 µM (inactive)	> 100 µM (inactive)	> 100 µM (inactive)	–	> 100 µM (inactive)	> 100 µM (inactive)	52.7 µM (inactive)	> 100 µM (inactive)	> 100 µM (inactive)	–
Cc1nnc(N)nc1/C=C\c1cccs1	17.3 µM (inactive)	16.7 µM (inactive)	19.9 µM (inactive)	12 µM (inactive)	87.3 µM (inactive)	21.6 µM (inactive)	21.8 µM (inactive)	19.5 µM (inactive)	28.8 µM (inactive)	14.6 µM (inactive)	> 10 µM (inactive)	33.6 µM (inactive)	–	46.9 µM (inactive)	32.4 µM (inactive)	29.9 µM (inactive)	14.9 µM (inactive)	14.1 µM (inactive)	17 µM (inactive)	–
COc1cc(OC)cc(C(=O)Cc2c(C(=O)c3ccccc3)c3ccccc3n2C(=O)c2ccccc2)c1	23.2 µM (inactive)	93.5 µM (inactive)	–	31.3 µM (inactive)	–	15.3 µM (inactive)	> 100 µM (inactive)	43.6 µM (inactive)	34.4 µM (inactive)	20.5 µM (inactive)	13.1 µM (inactive)	11.3 µM (inactive)	7.46 µM (inactive)	–	38.5 µM (inactive)	20.2 µM (inactive)	35.4 µM (inactive)	22.9 µM (inactive)	16.9 µM (inactive)	–
CC(=O)C1C(=O)NC(=O)C1=O (stereo not given)	> 100 µM (inactive)	> 100 µM (inactive)	–	> 100 µM (inactive)	–	> 100 µM (inactive)	> 100 µM (inactive)	> 100 µM (inactive)	> 100 µM (inactive)	> 100 µM (inactive)	> 100 µM (inactive)	> 100 µM (inactive)	> 100 µM (inactive)	–	> 100 µM (inactive)	> 100 µM (inactive)	> 100 µM (inactive)	> 100 µM (inactive)	> 100 µM (inactive)	–
O=C1Nc2ccccc2/C1=N/Nc1ncccc1[N+](=O)[O-]	4.92 µM (inactive)	12.9 µM (inactive)	31.6 µM (inactive)	2.09 µM (inactive)	86.9 µM (inactive)	19.2 µM (inactive)	12.6 µM (inactive)	–	22.6 µM (inactive)	20.9 µM (inactive)	–	19.9 µM (inactive)	1.39 µM (inactive)	–	14.1 µM (inactive)	7.18 µM (inactive)	10.6 µM (inactive)	6.12 µM (inactive)	17.6 µM (inactive)	27.1 µM (inactive)
COc1ccc(CCCN2c3ccccc3Sc3ccccc32)cc1	36.3 µM (inactive)	> 100 µM (inactive)	–	> 100 µM (inactive)	–	53.2 µM (inactive)	> 100 µM (inactive)	> 100 µM (inactive)	> 100 µM (inactive)	> 100 µM (inactive)	> 100 µM (inactive)	> 100 µM (inactive)	> 100 µM (inactive)	–	> 100 µM (inactive)	> 100 µM (inactive)	> 100 µM (inactive)	54.1 µM (inactive)	> 100 µM (inactive)	–
Nc1ccn(C2OC(COP(=O)(O)OCC3OC(n4cc(F)c(=O)[nH]c4=O)CC3O)C(O)C2O)c(=O)n1 (stereo not given)	0.687 µM (active)	–	> 100 µM (inactive)	> 34 µM (inactive)	–	> 100 µM (inactive)	> 100 µM (inactive)	> 56.8 µM (inactive)	> 25.5 µM (inactive)	> 100 µM (inactive)	0.605 µM (active)	0.585 µM (active)	> 48.3 µM (inactive)	4.47 µM (inactive)	–	1.77 µM (inactive)	0.0925 µM (active)	4.3 µM (inactive)	1.37 µM (inactive)	26.4 µM (inactive)
NS(=O)(=O)c1ccc(NC(=O)COC(=O)c2cccc3c(=O)c4ccccc4[nH]c23)cc1	17.7 µM (inactive)	18.5 µM (inactive)	–	21.5 µM (inactive)	–	25.5 µM (inactive)	> 56.5 µM (inactive)	17.5 µM (inactive)	50.8 µM (inactive)	19.5 µM (inactive)	> 83.4 µM (inactive)	17 µM (inactive)	14.4 µM (inactive)	–	24.7 µM (inactive)	14.4 µM (inactive)	14.6 µM (inactive)	> 100 µM (inactive)	20.7 µM (inactive)	–
CSCCC(NC(=O)Cc1ccc(C(=O)c2ccccc2)cc1)C(=O)N1CCN(CCCCN2c3ccccc3Sc3cc(N=[N+]=[N-])ccc32)CC1 (stereo not given)	65.8 µM (inactive)	> 100 µM (inactive)	–	> 100 µM (inactive)	> 100 µM (inactive)	16.5 µM (inactive)	> 100 µM (inactive)	89.9 µM (inactive)	–	> 100 µM (inactive)	30.2 µM (inactive)	–	–	–	> 100 µM (inactive)	> 100 µM (inactive)	> 100 µM (inactive)	> 100 µM (inactive)	–	–
N#CC1=C(Nc2ccccc2)SC=C(c2ccccc2)N=C1NCc1ccccc1	> 100 µM (inactive)	> 100 µM (inactive)	–	–	> 100 µM (inactive)	> 100 µM (inactive)	> 100 µM (inactive)	> 100 µM (inactive)	> 100 µM (inactive)	> 100 µM (inactive)	54.5 µM (inactive)	> 100 µM (inactive)	–	> 100 µM (inactive)	> 100 µM (inactive)	> 100 µM (inactive)	> 100 µM (inactive)	–	> 100 µM (inactive)	> 100 µM (inactive)
CC1=CC(=O)/C(=C/NC(=S)c2ccccc2)C(=O)O1	> 100 µM (inactive)	> 100 µM (inactive)	–	> 100 µM (inactive)	> 100 µM (inactive)	> 100 µM (inactive)	> 100 µM (inactive)	–	> 100 µM (inactive)	> 100 µM (inactive)	> 100 µM (inactive)	> 100 µM (inactive)	> 100 µM (inactive)	> 100 µM (inactive)	> 100 µM (inactive)	> 100 µM (inactive)	> 100 µM (inactive)	> 100 µM (inactive)	> 100 µM (inactive)	> 100 µM (inactive)
N#C[BH2-][n+]1cn(C2CC(O)C(COP(=O)(O)OC3CC(n4ccc(N)nc4=O)OC3CO)O2)c2nc(N)[nH]c(=O)c21 (stereo not given)	> 100 µM (inactive)	> 100 µM (inactive)	–	> 100 µM (inactive)	> 100 µM (inactive)	> 100 µM (inactive)	> 100 µM (inactive)	> 100 µM (inactive)	–	> 100 µM (inactive)	> 100 µM (inactive)	> 100 µM (inactive)	> 100 µM (inactive)	> 100 µM (inactive)	–	> 100 µM (inactive)	> 100 µM (inactive)	> 100 µM (inactive)	> 100 µM (inactive)	> 100 µM (inactive)
Nc1ccccc1/C=C\c1ccccc1	> 100 µM (inactive)	> 100 µM (inactive)	> 100 µM (inactive)	> 100 µM (inactive)	–	–	> 100 µM (inactive)	> 100 µM (inactive)	> 100 µM (inactive)	–	> 100 µM (inactive)	> 100 µM (inactive)	> 100 µM (inactive)	> 100 µM (inactive)	> 100 µM (inactive)	> 100 µM (inactive)	> 100 µM (inactive)	> 100 µM (inactive)	> 100 µM (inactive)	> 100 µM (inactive)
O=C(O)C1CCCN1C(=O)c1cc(Cl)ccn1 (stereo not given)	> 100 µM (inactive)	> 100 µM (inactive)	> 100 µM (inactive)	> 100 µM (inactive)	–	> 100 µM (inactive)	> 100 µM (inactive)	> 100 µM (inactive)	> 100 µM (inactive)	> 100 µM (inactive)	> 100 µM (inactive)	> 100 µM (inactive)	> 100 µM (inactive)	> 100 µM (inactive)	> 100 µM (inactive)	> 100 µM (inactive)	> 100 µM (inactive)	> 100 µM (inactive)	> 100 µM (inactive)	> 100 µM (inactive)
O=C(/C=C/c1cccc([N+](=O)[O-])c1)c1ccc([N+](=O)[O-])cc1	> 100 µM (inactive)	> 100 µM (inactive)	–	> 100 µM (inactive)	–	> 100 µM (inactive)	> 100 µM (inactive)	> 100 µM (inactive)	> 100 µM (inactive)	> 100 µM (inactive)	> 100 µM (inactive)	> 100 µM (inactive)	> 100 µM (inactive)	–	> 100 µM (inactive)	> 100 µM (inactive)	> 100 µM (inactive)	> 100 µM (inactive)	> 100 µM (inactive)	–
